Active and inactive are the calls of the source. The rule behind the calls is not given here.
Tests used:
Rattus norvegicus [1] = assay: Uterotrophic activity in spayed Wistar rat assessed as autopsies by measuring uterus weight at 0.1 umol, po after 2 weeks (reference value: 15.9 +/- 0.50 mg); type: functional
Rattus norvegicus [2] = assay: Uterotrophic activity in spayed Wistar rat assessed as autopsies by measuring uterus weight at 0.1 umol, po after 1 week (reference value: 15.1 +/- 0.51 mg); type: functional

| SMILES | Activity (Rattus norvegicus [1]) | Activity (Rattus norvegicus [2]) |
| --- | --- | --- |
| C#C[C@]1(OC(C)=O)CC[C@H]2[C@@H]3CC=C4C=C(O[C@H]5CC[C@H]6[C@@H]7CCc8cc(OC(=O)CCCCCC)ccc8[C@H]7CC[C@]56C)CC[C@@H]4[C@H]3CC[C@@]21C | 18.9 mg | 29.5 mg |
| CC(=O)[C@@H]1CC[C@H]2[C@@H]3CC=C4C=C(O[C@H]5CC[C@H]6[C@@H]7CCc8cc(OC(=O)c9ccccc9)ccc8[C@H]7CC[C@]56C)CC[C@@H]4[C@H]3CC[C@]12C | inactive | inactive |
| C[C@]12CC[C@@H]3c4ccc(O)cc4CC[C@H]3[C@@H]1CC[C@@H]2OC1=CC2=CC[C@@H]3[C@H](CC[C@]4(C)C(=O)CC[C@@H]34)[C@@]2(C)CC1 | 38.9 mg | 56.9 mg |
| C#C[C@]1(OC(C)=O)CC[C@H]2[C@@H]3CC=C4C=C(O[C@H]5CC[C@H]6[C@@H]7CCc8cc(OC(=O)c9ccccc9)ccc8[C@H]7CC[C@]56C)CC[C@@H]4[C@H]3CC[C@@]21C | 21.4 mg | 25.6 mg |
| C#C[C@]1(OC(C)=O)CC[C@H]2[C@@H]3CC=C4C=C(O[C@H]5CC[C@H]6[C@@H]7CCc8cc(O)ccc8[C@H]7CC[C@]56C)CC[C@@H]4[C@H]3CC[C@@]21C | 26.7 mg | 38.1 mg |
| C[C@]12CC[C@@H]3c4ccc(OC(=O)c5ccccc5)cc4CC[C@H]3[C@@H]1CC[C@@H]2OC1=CC2=CC[C@@H]3[C@H](CC[C@]4(C)C(=O)CC[C@@H]34)[C@H]2CC1 | 43.7 mg | 59.8 mg |
| C#C[C@]1(OC(=O)CCCCCC)CC[C@H]2[C@@H]3CC=C4C=C(O[C@H]5CC[C@H]6[C@@H]7CCc8cc(OC)ccc8[C@H]7CC[C@]56C)CC[C@@H]4[C@H]3CC[C@@]21C | 15.4 mg | 18.2 mg |
| C[C@]12CC[C@@H]3c4ccc(O)cc4CC[C@H]3[C@@H]1CC[C@@H]2OC1=CC2=CC[C@@H]3[C@H](CC[C@]4(C)C(=O)CC[C@@H]34)[C@H]2CC1 | 43.6 mg | 71.7 mg |
| C#C[C@]1(O)CC[C@H]2[C@@H]3CCc4cc(OC5CCCC5)ccc4[C@H]3CC[C@@]21C [QUINESTROL] | 29 mg | 39 mg |
| C[C@]12CCC(O[C@H]3CC[C@H]4[C@@H]5CCc6cc(O)ccc6[C@H]5CC[C@]34C)C[C@H]1CC[C@@H]1[C@@H]2CC[C@]2(C)[C@@H](O)CC[C@@H]12 (stereo partly drawn) | inactive | inactive |
| CCC(=O)O[C@H]1CC[C@H]2[C@@H]3CC[C@@H]4C=C(O[C@H]5CC[C@H]6[C@@H]7CCc8cc(OC(=O)c9ccccc9)ccc8[C@H]7CC[C@]56C)CC[C@]4(C)[C@H]3CC[C@]12C | 19.9 mg | 21.2 mg |
| C#C[C@]1(O)CC[C@H]2[C@@H]3CCc4cc(O)ccc4[C@H]3CC[C@@]21C [ETHINYL ESTRADIOL] | 20.5 mg | 22.5 mg |
| CC(=O)O[C@]1(C(C)=O)CC[C@H]2[C@@H]3CC(C)=C4C=C(O[C@H]5CC[C@H]6[C@@H]7CCc8cc(OC(=O)c9ccccc9)ccc8[C@H]7CC[C@]56C)CC[C@]4(C)[C@H]3CC[C@@]21C | 21.9 mg | 26.6 mg |
| C#C[C@]1(OC(=O)CCCCCC)CC[C@H]2[C@@H]3CC=C4C=C(O[C@H]5CC[C@H]6[C@@H]7CCc8cc(OC(=O)C(C)C)ccc8[C@H]7CC[C@]56C)CC[C@@H]4[C@H]3CC[C@@]21C | 30.4 mg | 37.2 mg |

Reference: ChEMBL document CHEMBL3243925, “Disteroidyl ethers. 1. Synthesis and oral long-lasting uterotrophic activity of 1,3,5(10)-estratrien-17-yl enol ethers of 3-keto steroids” (1977)
